Results reported in patent publication US20230241060A1, “GLUCOCORTICOID-SPARING AGENT” (METRIOPHARM AG, priority 2020, published 2023).
Where “and” joins values, the source holds several entries; their conditions need not be identical. Equal values may be shown once. Read-outs that look alike come from different tables or passages of the source.

Tests used:
[1] = Schumann et al. 2020; cited from earlier work
[2] = Body weight in pilot study of collagen induced arthritis (CIA) in mice; conditions: MP1032 1 mg/kg/day alone, intraperitoneally
[3] = tested on: IL-6 production, LPS stimulated RAW264.7 cells; assay: IL-6 levels (ELISA) in supernatants of LPS stimulated RAW264.7 cells; format: cell-based, mouse
Protocol: Raw264.7 cells (leukemia transformed monocytic-macrophage cell line derived from mouse ascitic fluid) were grown in Dulbecco's Modified Eagle's Medium enriched with glutamine and fetal calf serum and maintained at 37° C. and 5% CO2.
Two experimental parts were performed.

[4] = Case report rheumatoid arthritis; format: in vivo, human; conditions: person, 10 mg prednisone retard tablets once daily
Excerpt: A person was diagnosed with rheumatoid arthritis a few months after experiencing first symptoms.

Nc1cccc2c(=O)[nH][nH]c(=O)c12
tolerability [1]: well tolerated

Nc1cccc2c(=O)[nH][nH]c(=O)c12.[Na]
Body weight on day 45, median [2]: (23.6, n = 11) g | Percentage inhibition of IL-6 production ([3]; Exp Part 1, MP1032 0.025 mM alone, sodium salt): 17% and 17.03% | Percentage inhibition of IL-6 production ([3]; Exp Part 1, MP1032 0.05 mM alone, sodium salt): 25.8% and 25.77% | Percentage inhibition of IL-6 production ([3]; Exp Part 1, MP1032 0.1 mM alone): 44.85% | Percentage inhibition of IL-6 production ([3]; Exp Part 1, MP1032 0.25 mM alone): 53.95% | Percentage inhibition of IL-6 production ([3]; Exp Part 1, MP1032 0.5 mM alone): 56.70% | Percentage inhibition of IL-6 production ([3]; Exp Part 1, MP1032 1 mM alone): 72.75% | Percentage inhibition of IL-6 production ([3]; Exp Part 2, MP1032 0.025 mM alone): 1.57% | Percentage inhibition of IL-6 production ([3]; Exp Part 2, MP1032 0.05 mM alone): 0% | Percentage inhibition of IL-6 production ([3]; Exp Part 2, MP1032 0.1 mM alone): 0% | Percentage inhibition of IL-6 production ([3]; Exp Part 2, MP1032 0.25 mM alone): 13.85% | Percentage inhibition of IL-6 production ([3]; Exp Part 2, MP1032 0.5 mM alone): 47.52% | Percentage inhibition of IL-6 production ([3]; Exp Part 2, MP1032 1 mM alone): 67.30%

C[C@@H]1C[C@H]2[C@@H]3CCC4=CC(=O)C=C[C@]4(C)[C@@]3(F)[C@@H](O)C[C@]2(C)[C@@]1(O)C(=O)CO [Dexamethasone, dexamethasone, reference compound]
Percentage inhibition of IL-6 production ([3]; Exp Part 1, dexamethasone 0.01 μM alone): 34.66% | inhibition at 0.01 µM ([3]; Mus musculus, RAW264.7, Exp Part 1, dexamethasone 0.01 μM alone, read-out: Percentage inhibition of IL-6 production): 34.7% | inhibition at 0.1 µM ([3]; Mus musculus, RAW264.7, Exp Part 1, dexamethasone 0.1 μM alone, read-out: Percentage inhibition of IL-6 production): 63.8% | inhibition at 1 µM ([3]; Mus musculus, RAW264.7, Exp Part 1, dexamethasone 1 μM alone, read-out: Percentage inhibition of IL-6 production): 87% | inhibition at 0.0003 µM ([3]; Mus musculus, RAW264.7, Exp Part 2, dexamethasone 0.0003 μM alone, read-out: Percentage inhibition of IL-6 production): 1.57% | inhibition at 0.0006 µM ([3]; Mus musculus, RAW264.7, Exp Part 2, dexamethasone 0.0006 μM alone, read-out: Percentage inhibition of IL-6 production): 4.07% | inhibition at 0.0012 µM ([3]; Mus musculus, RAW264.7, Exp Part 2, dexamethasone 0.0012 μM alone, read-out: Percentage inhibition of IL-6 production): 0% | inhibition at 0.0025 µM ([3]; Mus musculus, RAW264.7, Exp Part 2, dexamethasone 0.0025 μM alone, read-out: Percentage inhibition of IL-6 production): 4.16% | inhibition at 0.005 µM ([3]; Mus musculus, RAW264.7, Exp Part 2, dexamethasone 0.005 μM alone, read-out: Percentage inhibition of IL-6 production): 30.6% | inhibition at 0.01 µM ([3]; Mus musculus, RAW264.7, Exp Part 2, dexamethasone 0.01 μM alone, read-out: Percentage inhibition of IL-6 production): 36.3%

C[C@]12C=CC(=O)C=C1CC[C@@H]1[C@@H]2C(=O)C[C@@]2(C)[C@H]1CC[C@]2(O)C(=O)CO [prednisone]
pain and inflammation ([4]; rheumatoid arthritis, within months): improved | body weight [4]: started to gain weight
